# Assay results from patent US5932709A (University of Michigan, priority 1997, dated 1999).
# Experiments:
# [1] = tested on: HT-29 human colon adenocarcinoma cells; assay: MTT growth inhibition, HT-29; type: cell-based; details: 144 h, HT-29, MTT, 6 days, read-out: Growth Inhibitory Activity IC50
# Experimental: (§1) Camptothecin was used as a control to test the anti-cancer efficacy of the novel camptothecin analogs of the present invention.
# (§2) Murine B16 melanoma cell line was grown in RPMI 1640 medium supplemented with 10% heat-inactivated fetal bovine serum, 2 mM L-glutamine, 50 units/mL penicillin, 50 μg/mL streptomycin, 25 μg/mL gentamicin, 0.75% sodium bicarbonate 10 mM HEPES buffer (pH 7.4), and 0.06 mg/mL AntiPPLO. Murine P388 leukemic cell line and human HT-29 colon adenocarcinoma line were maintained in RPMI 1640 medium supplemented with 10% heat-inactivated fetal bovine serum. […] MCF-7M human breast adenocarcinoma was maintained in IMEM supplemented with 5% non heat-inactivated fetal bovine serum and 1 nM insulin.
# (§3) [See "Rapid Colorimetric Assay For Cellular Growth And Survival: Application To Proliferation And Cytotoxicity Assays," J. Immun. Meth. 65:55 (1983)]. The assay utilizes a tetrazolium salt to quantitatively measure mammalian cell survival and proliferation by colorimetric methods. In particular, MTT, a pale yellow compound with minimal absorbance, is incubated with cancerous cells in addition to (or in the absence of) a particular camptothecin analog. Living cells with active mitochondrial enzymes metabolize the MTT into a dark blue/purple formazan product with high absorbance. The exact procedure used to test the camptothecin analogs of the present invention is described below.
# (§4) Exponentially growing cells (1-2×10^3 cells, unless specified otherwise) in 0.1 mL medium were seeded on day 0 in a 96-well microtiter plate. On day 1, 0.1 mL aliquots of medium containing graded concentrations of test analogs were added to the cell plates. After incubation at 37° C. in a humidified incubator for 3 days (P388, P388/CPT, B16) or 6 days (HT-29, MCF-7M), the plates were centrifuged briefly and 100 μL of the growth medium was removed. Cell cultures were incubated with 50 μL of 3-(4,5-dimethylthiazol-2-yl)-2,5-diphenyl-tetrazolium bromide [MTT, 1 mg/mL in Dulbecco's phosphate buffered saline (PBS)] for 4 hr at 37° C. The resulting purple formazan precipitate was solubilized with 200 μL of 0.04 N HCl in isopropyl alcohol. Absorbance was monitored in a BioRad Model 3550 Microplate Reader at a test wavelength of 570 nm and a reference wavelength of 630 nm. The absorbance is transferred to a PC 486 computer. The IC50 values were determined by a computer program (EZ-ED50) that fits all of the data to the following four-parameter logistic equation:
# (§5) Y=(Amax -Amin)/(1+[X/IC^50 ])^n +Amin
# (§6) where Amax is the absorbance of control cells, Amin is the absorbance of cells in the presence of highest agent concentration, IC^50 is the concentration of agent that inhibits the cell growth by 50% of control cells (based on the absorbance) and n is the slope of the curve.
# [2] = tested on: MCF-7 human breast tumor cells; assay: MTT growth inhibition, MCF-7; type: cell-based; details: MCF7, 144 h, MCF-7, MTT, 6 days, read-out: Growth Inhibitory Activity IC50
# Experimental: as §1, §2, §3, §4, §5, §6
# [3] = tested on: murine B16 melanoma; assay: Murine B16 melanoma model in vivo; parameters: species or system mouse (B6D2F1); details: for Survivors: 60-day
# Experimental: 1) Murine B16 Melanoma Model
# For the B16 melanoma model, the following procedure was used. B6D2F1 mice receive i.p. inocula of B16 murine melanoma brei prepared from B16 tumors growing s.c. in mice (day 0). […] If dosing information for agents is not available, the maximum tolerated dose (MTD) is determined in initial dose finding experiments in non-tumored mice.
# The mean survival times of all groups are calculated, and results are expressed as mean survival of treated mice/mean survival of control mice (T/C)×100%. A T/C value of 150 means that the mice in the treated group lived 50% longer than those of the control group; this is sometimes referred to as the increase in life span or ILS value.
# Mice that survive for 60 days are considered long-term survivors, or cures, in the B16 model. The universally accepted cut-off for activity in this model, which has been for years by the National Cancer Institute, is T/C=125. Conventional use of B16 over the years has set the following levels of activity: T/C<125, no activity, T/C=125-150, weak activity; T/C=150-200, modest activity; T/C=200-300, high activity; T/C>300, with long term survivors; excellent, curative activity.
# [4] = tested on: MX-1 human breast tumor xenograft; assay: in vivo
# Text: For all the models, the vehicle used to deliver the analog of interest was isotonic saline.
# For the MX-1 human breast tumor xenograft models, the following procedure was used. Nude mice are implanted s.c. by trocar with fragments of MX-1 mammary carcinomas harvested from s.c. growing MX-1 tumors in nude mice hosts. When tumors are approximately 5 mm×5 mm in size (usually about ten days after inoculation), the animals are pair-matched into treatment and control groups. Each group contains ten tumored mice, each of which is ear-tagged and followed individually throughout the experiment. The administration of drugs or vehicle begins the day the animals are pair-matched (day 1). The doses, route of drug administration and schedule are selected as appropriate for the study in question. If the MTD dose of an agent is not known, it is determined in an initial dosing experiment in non-tumored mice. In a typical experiment, drugs are given at their MTD and 1/2 MTD doses i.p. on a daily×5 schedule.
# The experiment is usually terminated when control tumors reach a size of 2-3 g. Mice are weighed twice weekly, and tumor measurements are taken by calipers twice weekly, starting on day 1. These tumor measurements are converted to mg tumor weight by a well known formula, and from these calculated tumor weights the termination date can be determined. Upon termination, all mice are weighed, sacrificed, and their tumors excised. Tumors are weighed, and the mean tumor weight per group is calculated.
# Some drugs cause tumor shrinkage in the MX-1 model. With these agents, the final weight of a given tumor is subtracted from its own weight at the start of the treatment on day 1. This difference divided by the initial tumor weight is the % shrinkage. A mean % tumor shrinkage can be calculated from data from the mice in a group that experienced MX-1 regressions. If the tumor completely disappears in a mouse, this is considered a complete regression or complete tumor shrinkage. If desired, mice with partial or total tumor regressions can be kept alive past the termination date to see whether they live to become long term, tumor-free survivors.
# Note that in the following table the abbreviation SR refers to tumor shrinkage rate, while those entries followed by a superscripted `2` are tumor growth inhibition rates, not tumor shrinkage rates.
compound,measurement,setting,value
"CC[C@@]1(O)C(=O)OCc2c1cc1n(c2=O)Cc2c-1nc1ccccc1c2CO[C@@H]1C=C[C@H](O[C@H]2O[C@H](CO)[C@@H](O)[C@H](O)[C@H]2O)[C@@H](CO)O1 [HAR6, 7-[4-O-(α-D-glucopyranosyl)-2,3-dideoxy-α-D-erythro-hex-2-enopyranosyl]-oxymethylcamptothecin]",IC50,[1],0.476 µg/mL
same,IC50,[2],0.111 µg/mL
same,60-day survivors (cures),[3]; 100 mg/kg,no cures
same,drug-related deaths,[3]; 100 mg/kg,one
same,T/C (mean survival treated/control),[3]; 100 mg/kg i.p. daily×5,184%
same,Tox Deaths,[3]; 100 mg/kg i.p. daily×5,1/10
same,ΔWeight (%),[3]; 100 mg/kg i.p. daily×5,-13.8%
same,Survivors,[3]; 100 mg/kg i.p. daily×5,0/10
same,weight loss,[3]; 100 mg/kg i.p. five day schedule,approximately 14%
same,T/C (mean survival treated/control),[3]; 150 mg/kg i.p. daily×5,185%
same,Tox Deaths,[3]; 150 mg/kg i.p. daily×5,7/10
same,ΔWeight (%),[3]; 150 mg/kg i.p. daily×5,-27.2%
same,Survivors,[3]; 150 mg/kg i.p. daily×5,0/10
same,mice with growth inhibition,[4]; 50 mg/kg,2
same,mice with tumor shrinkage,[4]; 50 mg/kg,8
same,SR(%) (Tumor Shrinkage Rate),[4]; 50 mg/kg i.p. daily×5,81%
same,Shrinkage (animals),[4]; 50 mg/kg i.p. daily×5,8/10
same,Tox Deaths,[4]; 50 mg/kg i.p. daily×5,0/10
same,ΔWeight (%),[4]; 50 mg/kg i.p. daily×5,+2.5%
same,tumor growth inhibition,"[4]; 50 mg/kg, remaining 2 animals",82%
same,body weight loss,[4]; 100 mg/kg,approximately 19%
same,drug-related deaths,[4]; 100 mg/kg,the tenth animal died of toxicity and one
same,mice with tumor shrinkage,[4]; 100 mg/kg,9
same,SR(%) (Tumor Shrinkage Rate),[4]; 100 mg/kg i.p. daily×5,94%
same,Shrinkage (animals),[4]; 100 mg/kg i.p. daily×5,9/10
same,Tox Deaths,[4]; 100 mg/kg i.p. daily×5,1/10
same,ΔWeight (%),[4]; 100 mg/kg i.p. daily×5,-18.6%
same,antitumor activity vs. MX-1,[4]; in words,impressive antitumor activity vs. MX-1
"CC[C@@]1(O)C(=O)OCc2c1cc1n(c2=O)Cc2c-1nc1ccccc1c2CO[C@@H]1C=C[C@H](OC(C)=O)[C@@H](COC(C)=O)O1 [HAR4, 7-[4,6-di-O-acetyl-2,3-dideoxy-α-D-erythro-hex-2-enopyranosyl]oxymethylcamptothecin]",IC50,[1],0.011 µg/mL
same,IC50,[2],0.0027 µg/mL
same,cures,[3]; 10 mg/kg,one
same,T/C (mean survival treated/control),[3]; 10 mg/kg i.p. daily×5,189%
same,Tox Deaths,[3]; 10 mg/kg i.p. daily×5,0/10
same,ΔWeight (%),[3]; 10 mg/kg i.p. daily×5,+6.6%
same,Survivors,[3]; 10 mg/kg i.p. daily×5,1/10
same,cures,[3]; 20 mg/kg,one
same,T/C (mean survival treated/control),[3]; 20 mg/kg i.p. daily×5,212%
same,Tox Deaths,[3]; 20 mg/kg i.p. daily×5,1/10
same,ΔWeight (%),[3]; 20 mg/kg i.p. daily×5,-15.6%
same,Survivors,[3]; 20 mg/kg i.p. daily×5,1/10
same,toxic deaths,[3]; high dose group,one
same,complete disappearance of tumors (animals),[4]; 10 mg/kg,2
same,Tox Deaths,[4]; 10 mg/kg i.p. daily×5,0/10
same,ΔWeight (%),[4]; 10 mg/kg i.p. daily×5,-10.2%
same,SR(%) (Tumor Shrinkage Rate),"[4]; 10 mg/kg i.p. daily×5, 8/10 animals",77%
same,Shrinkage (animals),"[4]; 10 mg/kg i.p. daily×5, partial (77%)",8/10
same,SR(%) (Tumor Shrinkage Rate),"[4]; 10 mg/kg, 2/10 animals",100%
same,Shrinkage (animals),"[4]; 10 mg/kg, complete (100%) shrinkage",2/10
same,mice with tumor shrinkage,"[4]; 10 mg/kg, mean 77%",8
same,SR(%) (Tumor Shrinkage Rate),[4]; 20 mg/kg i.p. daily×5,99%
same,Shrinkage (animals),[4]; 20 mg/kg i.p. daily×5,1/10
same,Tox Deaths,[4]; 20 mg/kg i.p. daily×5,9/10
same,toxicity,"[4]; 20 mg/kg, in words",toxic
same,antitumor activity vs. MX-1,[4]; in words,"almost equivalent, outstanding activity"
